{
  "source": "patent US20210095293A1",
  "about": "“METHODS OF TREATING CANCERS WITH GPR132 INHIBITORS” (The Board of Regents of the University of Texas System, priority 2016, published 2021)",
  "format_in_all_cases": "cell-based, mouse",
  "key": {"Gpr132": {"system": "Gpr132", "assay": "calcium mobilization assay in BMDMs", "settings": "WT or Gpr132-KO BMDMs stimulated with 25 mM", "procedure": "FIG. 27. […] WT or Gpr132-KO BMDMs were stimulated with 25 mM lactate (Left) or HCl (Right) (n=3).\nTo determine whether Gpr132 is required for lactate signaling in macrophages, a calcium mobilization assay was performed. […] First, lactate levels in the CM of distinct cancer cell lines were measured using a Vitros 250 chemistry analyzer. […] Second, the effects of blocking lactate production from EO771 and 4T1.2 cells by oxamic acid, an inhibitor of lactate dehydrogenase was tested."}, "[1]": {"system": "breast cancer cells (4T1.2, EO771)", "assay": "Boyden chamber assay, cancer cell migration", "settings": "oxamic acid 90 mM pre-treatment; WT macrophages", "procedure": "(§1) FIGS. 11A-11C. Lactate-activated macrophage promotes cancer cell adhesion, migration and invasion via Gpr132. (FIG. 11A) Adherence assays. 4T1.2 cells were suspended in fibronectin ([…]) pre-coated plates with CM from spleen-derived macrophages (mf) that were treated with 4T1.2 CM or lactate (5 mM) with or without Gpr132 antibody (6 mg/ml) or normal IgG (6 mg/ml) for 10 min. The adhered cells were stained with crystal violet, dissolved in 1% Triton X-100 and measured by OD590. (FIGS. 11B-11C) Boyden chamber assay of cancer cell migration and invasion. 4T1.2 cells (B) or EO771 cells (FIG. 11C) were plated on the upper chamber inserts, with untreated (Control), 4T1.2 CM-activated or lactate-activated spleen-derived WT or Gpr132-KO macrophages plated in the lower chambers. For invasion assay, the inserts were pre-coated with 60 μl matrigel. After migration for 6 hrs (FIG. 11B) or invasion for 24 hrs (FIG. 11C), the migrated or invaded cells were stained with crystal violet and counted as cells per field of view under microscope (n=3-4); For (FIG. 11C), the first bar of each data set of the bar graphs represents the control mf, and the second bar represents Gpr132KO; *p<0.05; **p<0.01; ***p<0.005; ****p<0.001. Scale bar, 500 μm.\n(§2) FIGS. 23A-23B. Cancer cell-derived lactate activates macrophages to promote cancer cell migration and invasion via Gpr132. (FIGS. 23A-23B) Boyden chamber assay. EO771 or 4T1.2 cells were cultured in the presence or absence of oxamic acid (90 mM) for 3 days. CM was harvested after the cells were cultured for another 24 hrs without oxamic acid. As a rescue, CM of oxamic acid-treated EO771 or 4T1.2 cells was supplemented with exogenous lactate. […] After migration for 6 hrs (FIG. 23A) or invasion for 24 hrs (FIG. 23B), the migrated or invaded cells were stained with crystal violet and counted as cells per field of view under microscope (n=3-4); for (FIG. 23A), the bars in each data set of the bar graph represent, from left to right, control, EO771, Oxamic acid, and Oxamic acid+Lactate; for (FIG. 23B), the bars in each data set of the bar graph represent, from left to right, control, 4T1.2CM, Oxamic acid, and Oxamic acid+Lactate; *p<0.05; ****p<0.001. […]\nMigration or invasion of breast cancer cells was examined using 24-well Boyden chambers (Corning, Corning, N.Y.) with transwell inserts of […] pore size, coated without (for migration) or with matrigel (for invasion) as previously reported. […] The migrated or invaded cells were fixed with methanol and stained with crystal violet (0.05%, sigma), and then counted as cells per field of view under microscope or measured as OD570 after crystal violet was dissolved."}, "EO771 and 4T1.2 cells": {"system": "EO771 and 4T1.2 cells", "assay": "lactate and pH in cancer cell conditioned media", "settings": "oxamic acid 90 mM for 3 days, CM after another 24 hrs", "procedure": "FIGS. 18A-18E. Lactate secreted by EO771 and 4T1.2 cells is responsible for the low pH in their CM. (FIG. 18A) Lactate levels in the conditional media (CM) from various cancer cells (n=3); *p<0.05, ****p<0.001 compared with EO771 CM; #### p<0.001 compared with 4T1.2 CM. (FIG. 18B) Lactate levels in EO771 CM at the indicated time point of culture (n=3). (FIG. 18C) Lactate levels in the whole CM, <3 kDa and >3 kDa fractions of CM from 24 h EO771 cell cultures (n=3). (FIGS. 18D-18E) EO771 and 4T1.2 cells were treated with or without oxamic acid (90 mM) for 3 days. CM was harvested after the cells were cultured for another 24 hrs without oxamic acid before lactate (FIG. 18D) and pH (FIG. 18E) quantification (n=3). **p<0.01, ***p<0.005, ****p<0.001.\nRAW264.7, EO771, 4T1.2, PY8119, PY230, SCP-4, SCP-6, SCP-28, MDA-1883, MDA-2287 and B16F10 cell lines were cultured in culture media containing 10% FBS (Sigma) and 1:100 antibiotic-antimycotic (Gibco). Conditioned media were obtained from serum-free media after culturing cells for 24 hrs or as indicated. Bone marrow-derived macrophages (BMDMs) and spleen-derived macrophages from WT and Gpr132-KO mice were cultured as previously described. Lactate in the conditioned media was quantified using a Vitros 250 chemistry analyzer at the UT Southwestern Metabolic Phenotyping Core."}, "[2]": {"system": "bone marrow derived macrophages (BMDMs)", "assay": "macrophage M2-like morphology (elongation)", "settings": "cancer cells treated with oxamic acid 90 mM for 3 days before CM harvest", "from_the_text": "FIGS. 9A-9D. Tumor-derived factors activate M2-like macrophages via Gpr132. (FIG. 9A) The pH values of conditioned media (CM) from cancer cells or macrophages (n=5-8); *p<0.05, ****p<0.001 compared with RAW 264.7 macrophage CM. (FIG. 9B) Western blot for CD206 and Gpr132 in RAW 264.7 macrophages after treatment with indicated cancer cell CM for 24 hrs. Actin was used as a loading control. The CD206/actin or Gpr132/actin ratio was quantified and shown as fold changes compared to control (n=3); *p<0.05, ***p<0.005 compared with control. (FIG. 9C) Flow cytometry analysis of Gpr132 and CD206 in BMDMs with or without EO771 CM treatment. The experiments were repeated twice and the representative results are shown. (FIG. 9D) Immunofluorescence staining for CD11b in WT and Gpr132-KO BMDMs after differentiation in the absence or presence of 30% EO771 CM or 4T1.2 CM for 7 days. Elongated macrophage morphology indicates a M2-like phenotype. Nuclei were stained with DAPI. Scale bar, 25 μm. WT, wild-type; Gpr132-KO, Gpr132 knockout.\nFIGS. 10A-10F. […] LC-MS was used to quantify lactate in the eluent of Gpr132 co-IP. (Left) Representative LC-MS chromatograms; (Right) Quantification of relative lactate binding (n=3). ****p<0.001 compared with WT. […] CD206/actin ratio was quantified and shown as fold changes compared to control (n=3-4); *p<0.05 compared with WT control. […]"}, "[3]": {"system": "breast cancer cells (EO771, 4T1.2)", "assay": "Boyden chamber assay, cancer cell invasion (matrigel)", "settings": "oxamic acid 90 mM pre-treatment; WT macrophages", "procedure": "as §1\nas §2, with “acid.” for “acid. As a rescue, CM of oxamic acid-treated EO771 or 4T1.2 cells was supplemented with exogenous lactate.”"}, "macrophages": {"system": "macrophages", "assay": "M2 marker expression in macrophages (Western blot, RT-qPCR, flow cytometry)", "settings": "IL-4 10 ng/ml for 16 hrs, spleen macrophages", "procedure": "After blocking with 10% BSA for 10 min, cells were incubated with anti-CD206 (Rabbit polyclonal, Abcam) or anti-Gpr132 (Rabbit polyclonal, Sigma) antibodies (1:100) for 30 min at 4° C., washed with cold PBS, and then incubated with FITC-conjugated secondary antibodies (1:100) for 30 min at 4° C. After washing twice using cold PBS, cells were analyzed by flow cytometer (Becton Dickinson). RNA was isolated from cells or mouse tissues using Trizol (Invitrogen) following the manufacturer's instructions. RNA (200-500 ng) was first treated with RNase-free DNase I using the DNA-free kit (Ambion) to remove all genomic DNA, and then reverse-transcribed into cDNA using an ABI High Capacity cDNA RT Kit (Invitrogen). The cDNA was analyzed using real-time quantitative PCR (SYBR Green, Invitrogen) with an Applied Biosystems 7900 Sequence Detection System. Each reaction was performed in triplicate in a 384-well format. The expression of each gene was normalized by that of mouse ribosomal protein L19. Samples of 20 μg protein were applied to SDS polyacrylamide gels. After protein transfer, membranes were incubated with antibodies for […] (rabbit polyclonal, Santa Cruz Biotechnology), CD206, Gpr132, or β-actin (mouse monoclonal, Sigma) (1:1000) overnight at 4° C. Membranes were washed, and then incubated with HRP-conjugated secondary antibodies (1:1000) for 1 hr at room temperature before signal detection by chemiluminescence (Pierce). Densitometric quantification was performed by Image-Pro Plus 6.0 software (Media Cybernetics). PathScan Akt Signaling Antibody Array (Cell Signaling) was incubated with macrophage proteins and analyzed following kit instructions."}},
  "note": "Counter-ions that a name gives are not always drawn.",
  "data": [
    {"molecule": "Cl", "note": "[hydrochloric acid (HCl), hydrochloric acid]", "values": [
      {"measurement": "effect of Gpr132 deletion on triggered calcium mobilization", "setting": "Gpr132", "value": "not"}
    ]},
    {"molecule": "NC(=O)C(=O)O", "note": "[oxamic acid]", "values": [
      {"measurement": "effects of CM-activated WT macrophages on cancer cell migration after pre-treatment of cancer cells", "setting": "[1]", "value": "abolished"},
      {"measurement": "lactate in the CM", "setting": "EO771 and 4T1.2 cells", "value": "depleted"},
      {"measurement": "ability of EO771 or 4T1.2 CM to induce M2-like morphology in WT BMDMs", "setting": "[2]", "value": "completely abolished"},
      {"measurement": "effects of CM-activated WT macrophages on cancer cell invasion after pre-treatment of cancer cells", "setting": "[3]", "value": "abolished"}
    ]},
    {"molecule": "IL-4: standard T helper 2 cytokine used to trigger macrophage M2 activation (protein, UniProt P05112 25-153, looked up) Interleukin-4: HKCDITLQEIIKTLNSLTEQKTLCTELTVTDIFAASKNTTEKETFCRAATVLRQFYSHHEKDTRCLGATAQQFHRHKQLIRFLKRLDRNLWGLAGLNSCPVKEANQSTLENFLERLKTIMREKYSKCSS", "values": [
      {"measurement": "induction of M2 markers (Arg-1, CCL17, CCL22, PPAR-γ, YM-1, YM-2), WT vs Gpr132-KO macrophages", "setting": "macrophages", "value": "equally well"}
    ]}
  ]
}
